Laboratory results published in patent US20260176300A1, “N-ARYLPYRAZOLE NOD2 AGONISTS AS PROMOTERS OF IMMUNE CHECKPOINT INHIBITOR THERAPY” (THE SCRIPPS RESEARCH INSTITUTE, priority 2022, published 2026).
Like-named read-outs stand apart in the source and are kept apart here. Values belong to the molecule of their own block, whether it stands above or below them.

How the values were obtained:
NOD2 = molecular target: T1, NOD2 (Homo sapiens, UniProt Q9HC29); assay: NOD2-HEK-Blue NF-κB reporter cell activation assay (NOD2-expressing HEK-293T cells); type: cell-based; conditions: for Potency in structure-activity comparison: relative to TT007, FIG. 2B, 2D, 2F, 6E; for Activation of NOD2-expressing HEK-293T cells, colorimetric assay: 10 µM, 16 h (FIG. 1E)
T1 construct: host or cells: HEK-293T-derived HEK-Blue NF-kB/SEAP reporter cells
T1 sequence (Q9HC29 whole entry): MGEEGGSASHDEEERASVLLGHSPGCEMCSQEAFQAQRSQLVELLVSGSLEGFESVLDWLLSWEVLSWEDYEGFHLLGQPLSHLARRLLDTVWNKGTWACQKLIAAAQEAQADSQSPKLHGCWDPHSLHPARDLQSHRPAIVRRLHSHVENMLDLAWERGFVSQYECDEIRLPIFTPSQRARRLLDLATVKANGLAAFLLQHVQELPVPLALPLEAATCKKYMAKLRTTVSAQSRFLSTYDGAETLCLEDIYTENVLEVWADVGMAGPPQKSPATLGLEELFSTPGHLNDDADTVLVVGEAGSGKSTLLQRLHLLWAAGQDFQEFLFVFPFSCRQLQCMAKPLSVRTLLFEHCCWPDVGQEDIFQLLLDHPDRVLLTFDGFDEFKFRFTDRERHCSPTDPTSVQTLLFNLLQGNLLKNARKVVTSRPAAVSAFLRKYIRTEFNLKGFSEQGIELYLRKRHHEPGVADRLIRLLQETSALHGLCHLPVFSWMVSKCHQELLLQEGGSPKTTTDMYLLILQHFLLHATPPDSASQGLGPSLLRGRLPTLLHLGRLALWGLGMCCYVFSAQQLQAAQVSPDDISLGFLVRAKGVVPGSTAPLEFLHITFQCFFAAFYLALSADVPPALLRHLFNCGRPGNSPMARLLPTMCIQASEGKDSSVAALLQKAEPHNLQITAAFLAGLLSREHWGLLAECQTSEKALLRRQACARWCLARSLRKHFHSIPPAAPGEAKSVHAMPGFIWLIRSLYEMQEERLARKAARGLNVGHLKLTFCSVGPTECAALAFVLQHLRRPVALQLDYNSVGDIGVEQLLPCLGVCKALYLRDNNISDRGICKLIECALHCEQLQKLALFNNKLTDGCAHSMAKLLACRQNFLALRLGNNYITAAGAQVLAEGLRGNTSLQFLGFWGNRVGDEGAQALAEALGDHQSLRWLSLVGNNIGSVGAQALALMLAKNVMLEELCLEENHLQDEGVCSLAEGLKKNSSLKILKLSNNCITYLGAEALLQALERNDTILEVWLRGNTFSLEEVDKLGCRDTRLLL
Description: FIG. 1(A-F). Virtual screening for small molecule NOD2 agonists. A, Docked structure of muramyl dipeptide (MDP) in the leucine-rich repeat (LRR) domain of rabbit NOD2 (pdb 5IRM). […] B, Results of virtual docking approach with reported chemical structures related to MDP. C, Workflow of virtual screening in which a library was generated using carboxylic acids appended to the L-Val-D-Glu dipeptide and then docked to the NOD2 LRR domain. D, Desmuramyl MDP (dMDP) structures resulting from the virtual screen that were synthesized for further screening. Chemicals shown as a pure enantiomer were synthesized as a racemic mixture. E, Activation of NOD2-expressing HEK-293T cells treated for 16 h with 10 µM of the indicated compound using a colorimetric assay. F, Dose-dependent activation of NOD2-expressing HEK-293T cells using the indicated compounds. Numbers in parentheses represent calculated negative log of the half maximal effective concentration (pEC50) values. NOD activation assays were analyzed using a one-way ANOVA with Dunnett's multiple comparisons test compared to the DMSO control. pEC50 values were derived by a three-parameter dose-response nonlinear regression. ****P<0.0001.
FIG. 2(A-G). Structure-activity relationship studies of 3,5-dimethyl-N-arylpyrazole NOD2 agonists. A, Structures of 3,5-dimethyl-N-arylpyrazole structures synthesized for SAR studies. B-F, Dose-dependent activation of NOD2-expressing HEK-293T cells using the indicated compounds grouped by similar structural perturbations. Numbers in parentheses represent calculated pEC50 values. G, Graph of calculated pEC50 values vs. calculated partition coefficient (clogP). Dotted lines show equivalent lipophilic ligand efficiency (LLE) values. Red arrow indicates optimization of the TT007 scaffold to TT030. pEC50 values were derived by a three-parameter dose-response nonlinear regression.
(§1) Cell culture. The following cell lines were used and sourced as follows: HEK-Blue NOD2 (InvivoGen, hkb-hnod2), HEK-Blue NOD1 (InvivoGen, hkb-nod1), HEK-Blue Null2 (hkb-null2), and B16-F10 (ATCC CRL-6475). All cell lines were cultured at 37° C. in 5% CO2 in DMEM (ThermoFisher, 11995065) supplemented with 10% fetal bovine serum (FBS), 100 U mL-1 penicillin, and 100 μg mL-1 streptomycin. Cells were maintained at no greater than 70% confluency and subcultured using TrypLE Express. Cell lines were routinely cultured without antibiotics to ensure no bacterial infection and tested for mycoplasma using a Universal Mycoplasma Detection Kit (ATCC 30-1012K). Primary human peripheral mononuclear blood cells (PBMCs) were cultured at 37° C. in 5% CO2 in RPMI 1640 (ThermoFisher, 61870143) supplemented with 10% FBS. All experimental work using human samples was reviewed and approved by the Scripps Research Institutional Review Board (Protocol IRB-21-7816NOD2).
Reporter cell line activation assay. Approximately 24 h before the assay, culture medium for each of the HEK-Blue reporter cell lines was replaced with a 1:1 mixture of DMEM supplemented with 10% FBS and OptiMEM. On the day of the assay, single cell suspensions (150,000 cells/mL) were produced in HEK-Blue detection medium (InvivoGen, hb-det2). Cells were aliquoted at 200 μL per well of a 96-well plate containing 0.2 μL of a 1000× stock of each test compound in DMSO. Cells were then incubated at 37° C. in 5% CO2 for 8-10 h. To measure activity, wells were then gently pipetted up and down to mix the conditioned medium, and absorbance from the colorimetric product of the secreted alkaline phosphatase was measured at 630 nm. In some assays, cells were stimulated for 16 h with compounds as described above in complete DMEM. Then, 20 μL of the conditioned medium was mixed with 180 μL QUANTI-Blue solution (InvivoGen, rep-qbs) and incubated for 2-4 h at 37° C. Activity was then measured by absorbance as described above.

[1] = tested on: B16-F10 subcutaneous tumors; assay: B16-F10 tumor growth assay with anti-PD-L1 co-treatment; type: in vivo, mice; conditions: wild-type C57BL/6 mice, 100 μg α-PD-L1 and 100 μg compound i.p. every other day
Experimental: FIG. 3(A-H). NOD2 agonist TT030 activates cytokine production in vitro and improves immune checkpoint inhibitor treatment of tumor growth in vivo. A-D, Measurements of secreted cytokine levels from human peripheral mononuclear blood cells (PMBCs) treated with the indicated compounds for 24 h without or with lipopolysaccharide (LPS). E, Structures of TT030 and its enantiomer (TT030-ent). F, Activation of NOD1- and NOD2-expressing HEK-293T cells with the indicated compounds. C12-iE-DAP is a lipophilic version of the NOD1 agonist, iE-DAP. G, Growth profiles of B16-F10 subcutaneous tumors in wild-type C57BL/6 mice treated with 100 μg α-PD-L1 and 100 μg of the indicated compounds every other day starting at Day 7. H, Growth profiles of B16-F10 subcutaneous tumors in wild-type or Nod2^−/− C57BL/6 mice treated with 100 μg α-PD-L1 and 100 μg TT030 every other day starting at Day 7. Cytokine secretion assays and NOD activation assays were analyzed using a one-way ANOVA with Dunnett's multiple comparisons test compared to the DMSO control. Longitudinal tumor growth assays were analyzed using linear mixed-effects model analysis on the log transformed data. ns=not significant, *P<0.05, **P<0.01, ***P<0.001, ****P<0.0001.
Animals. Specific pathogen-free, eight-week old male C57BL/6J (B6, 000664) and B6.129S1—Nod2^tm1Flv/J (Nod2^−/−, 005763 from Flavell Lab, Yale School of Medicine) were obtained from The Jackson Laboratory. Animals were housed in autoclaved caging with SaniChip bedding and enrichment for nest building on a 12-hour light/dark cycle. Animals were provided gamma-irradiated chow (LabDiet, 5053) and sterile drinking water ad libitum. Animal care and experiments were conducted in accordance with NIH guidelines and approved by the Institutional Animal Care and Use Committee at Scripps Research (Protocol AUP-21-095).
Tumor growth assay. B16-F10 cells were subcultured on the day prior to harvesting for tumor inoculation. On the day of injection, cells were harvested using TrypLE Express, washed and resuspended in cold PBS, and counted with a hemocytometer. Cells were then resuspended at 2×10^6 cells mL^−1 in PBS and mixed 1:1 with Matrigel matrix (Corning; growth factor reduced, 356231). Cell suspensions were kept on ice prior to injection. Animals were anesthetized using 3% isoflurane, and their right flank was shaved with hair clippers. Animals were then subcutaneously injected with 100 μL of the cell suspension on their mid-right flank (1×10^5 cells per injection). Once tumors were established at roughly 25-100 mm^3, tumor volume was measured every other day. Digital calipers were used to measure the length and width of each tumor, and tumor volume was calculated as length×[…], where width was the smaller of the two measurements. […]

NOD1 [2] = molecular target: T2, NOD1 (Homo sapiens, UniProt Q9Y239); conditions: relative to iE-DAP; cited from earlier work
T2 construct: host or cells: HEK-293T-derived HEK-Blue NF-kB/SEAP reporter cells
T2 sequence (Q9Y239 1-953): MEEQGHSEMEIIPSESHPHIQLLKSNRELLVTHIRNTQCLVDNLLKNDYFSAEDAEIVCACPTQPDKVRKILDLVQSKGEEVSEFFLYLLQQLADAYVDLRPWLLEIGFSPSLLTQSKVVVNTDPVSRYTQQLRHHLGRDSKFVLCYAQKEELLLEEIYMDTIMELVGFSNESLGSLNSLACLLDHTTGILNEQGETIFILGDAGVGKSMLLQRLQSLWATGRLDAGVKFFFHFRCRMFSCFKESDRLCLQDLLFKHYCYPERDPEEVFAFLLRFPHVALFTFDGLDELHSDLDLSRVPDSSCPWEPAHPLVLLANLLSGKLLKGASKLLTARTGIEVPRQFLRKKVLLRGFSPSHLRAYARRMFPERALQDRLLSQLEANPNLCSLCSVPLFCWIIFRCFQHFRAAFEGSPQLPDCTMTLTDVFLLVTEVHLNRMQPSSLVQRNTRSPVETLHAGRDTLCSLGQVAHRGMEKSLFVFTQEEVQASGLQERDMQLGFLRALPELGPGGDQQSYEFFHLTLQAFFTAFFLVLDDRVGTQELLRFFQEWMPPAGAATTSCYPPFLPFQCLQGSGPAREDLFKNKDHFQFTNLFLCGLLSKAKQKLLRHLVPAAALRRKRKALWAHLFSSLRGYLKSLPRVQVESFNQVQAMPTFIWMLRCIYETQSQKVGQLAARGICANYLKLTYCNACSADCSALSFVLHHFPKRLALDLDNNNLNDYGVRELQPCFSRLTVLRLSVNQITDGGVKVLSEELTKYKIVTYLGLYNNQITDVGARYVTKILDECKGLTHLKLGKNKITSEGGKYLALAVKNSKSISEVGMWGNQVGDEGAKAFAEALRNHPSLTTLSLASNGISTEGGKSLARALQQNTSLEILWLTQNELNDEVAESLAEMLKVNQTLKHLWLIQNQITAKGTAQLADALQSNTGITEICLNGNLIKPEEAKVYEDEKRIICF

NOD1 [3] = molecular target: T2, NOD1; assay: NOD1 HEK-Blue NF-κB reporter cell activation assay (NOD1-expressing HEK-293T cells); type: cell-based; conditions: 10 μM, 16 h (FIG. 5)
Experimental: (§2) FIG. 5(A-B). Lead 3,5-dimethyl-N-arylpyrazole TT007 specifically activates NOD2. A-B, Activation of Null (control) and NOD1-expressing HEK-293T cells treated for 16 h with 10 μM of the indicated compound using a colorimetric assay. ****P<0.0001.
as §1, with “All experimental work using human samples was reviewed and approved by the Scripps Research Institutional Review Board (Protocol IRB-21-7816NOD2).” left out
(§3) Reporter cell line activation assay. […] To measure activity, wells were then gently pipetted up and down to mix the conditioned medium, and absorbance from the colorimetric product of the secreted alkaline phosphatase was measured at 630 nm. […] Activity was then measured by absorbance as described above.

HEK-Blue Null2 = assay: NULL HEK-Blue NF-κB reporter cell activation assay (control); type: cell-based; conditions: 10 μM, 16 h (FIG. 5)
Experimental: as §2
as §1, with “All experimental work using human samples was reviewed and approved by the Scripps Research Institutional Review Board (Protocol IRB-21-7816NOD2).” left out
as §3

[4] = calculated, three-parameter dose-response nonlinear regression, read-out: pEC50 (μM), dose-dependent activation of NOD2-expressing HEK-293T cells (converted)

- EC50 (NOD2; [4]): 2.51 µM
Structure (SMILES): CCOC(=O)CC[C@@H](NC(=O)[C@@H](NC(=O)c1c(C)nn(-c2ccccc2)c1C)C(C)C)C(=O)OCC [TT018, Diethyl (3,5-dimethyl-1-phenyl-1H-pyrazole-4-carbonyl)-L-valyl-D-glutamate]
- Potency in structure-activity comparison (NOD2): did not yield compounds with appreciable differences in potency

- EC50 (NOD2; [4]): 1.58 µM
Structure (SMILES): CCOC(=O)CC[C@@H](NC(=O)[C@@H](NC(=O)c1c(C)nn(-c2ccccc2OC)c1C)C(C)C)C(=O)OCC [TT035, Diethyl (1-(2-methoxyphenyl)-3,5-dimethyl-1H-pyrazole-4-carbonyl)-L-valyl-D-glutamate]

- Activity after N-methylation on Val (NOD2; TT018 vs. TT019, TT010 vs. TT020, TT011 vs. TT021, FIG. 2C): abolished the activity
Structure (SMILES): CCOC(=O)CC[C@@H](NC(=O)[C@H](C(C)C)N(C)C(=O)c1cnn(-c2ccc(F)cc2)c1C)C(=O)OCC [TT020, Diethyl N-(1-(4-fluorophenyl)-5-methyl-1H-pyrazole-4-carbonyl)-N-methyl-L-valyl-D-glutamate]

- Activation of NOD2-expressing HEK-293T cells, colorimetric assay (NOD2): inactive
Structure (SMILES): CCOC(=O)CC[C@@H](NC(=O)[C@@H](NC(=O)c1cn(-c2ccccc2)nc1-c1cccc(C)c1)C(C)C)C(=O)OCC [TT008, Diethyl (1-phenyl-3-(m-tolyl)-1H-pyrazole-4-carbonyl)-L-valyl-D-glutamate]

- Activation of NOD2-expressing HEK-293T cells, colorimetric assay (NOD2): active
- EC50 (NOD2; FIG. 1F, read-out: pEC50, dose-dependent NOD2 activation (converted)): ~1 µM
- EC50 (NOD2; [4]): 1 µM
- Activation of NOD1 HEK-Blue NF-κB reporter cells (NOD1 [3]): inactive
Structure (SMILES): CCOC(=O)CC[C@@H](NC(=O)[C@@H](NC(=O)c1c(C)nn(-c2ccc(F)cc2)c1C)C(C)C)C(=O)OCC [TT007, Diethyl (1-(4-fluorophenyl)-3,5-dimethyl-1H-pyrazole-4-carbonyl)-L-valyl-D-glutamate]
- Activation of NULL HEK-Blue NF-κB reporter cells (HEK-Blue Null2): inactive

- EC50 (NOD2; [4]): 0.251 µM
Structure (SMILES): CCOC(=O)CC[C@@H](NC(=O)[C@@H](NC(=O)c1c(C)nn(-c2ccc3[nH]ccc3c2)c1C)C(C)C)C(=O)OCC [TT028, Diethyl (1-(1H-indol-5-yl)-3,5-dimethyl-1H-pyrazole-4-carbonyl)-L-valyl-D-glutamate]

- EC50 (NOD2; [4]): 1.26 µM
- Potency in structure-activity comparison (NOD2): slight increase
Structure (SMILES): CCOC(=O)CC[C@@H](NC(=O)[C@@H](NC(=O)c1c(C)nn(-c2ccc(Cl)c(Cl)c2)c1C)C(C)C)C(=O)OCC [TT022, Diethyl (1-(3,4-dichlorophenyl)-3,5-dimethyl-1H-pyrazole-4-carbonyl)-L-valyl-D-glutamate]

The next lines start with the molecule.

Structure (SMILES): CCOC(=O)CC[C@H](NC(=O)[C@H](NC(=O)c1c(C)nn(-c2cc[nH]c(=O)c2)c1C)C(C)C)C(=O)OCC [TT030-ent, Diethyl (3,5-dimethyl-1-(2-oxo-1,2-dihydropyridin-4-yl)-1H-pyrazole-4-carbonyl)-D-valyl-L-glutamate]
- NOD2 activity in the HEK-Blue in vitro assay (NOD2; FIG. 3F): NOD2-inactive
- B16 tumor growth over time [1]: not

Structure (SMILES): CCCCCCCCCCCC(=O)N[C@H](CCC(=O)NC(CCCC(N)C(=O)O)C(=O)O)C(=O)O (some centres unmarked) [C12-iE-DAP]
- Greater activation of NOD1-dependent NF-κB reporter (NOD1 [2]): ~100 fold

Structure (SMILES): C#CCCC1(CC(=O)N[C@H](C(=O)N[C@H](CCC(=O)OCC)C(=O)OCC)C(C)C)N=N1 [x-alk-VE]
- EC50 (NOD2; [4]): 1.58 µM
